# According to patent EP0359821A1, “METHOD OF STERILIZING PLANT ANTHERS” (priority 1988, dated 1989):
# Like-named read-outs stand apart in the source and are kept apart here.
# Experiments:
# [1] = test system: Diploider Roggen Sorte Gibrid 340/65; assay: Field trial of gametocidal activity, diploid rye Gibrid 340/65; conditions: Gibrid 340/65 (text: 312/65), 1% aqueous emulsion, 10 kg/ha
# [2] = test system: Winterweizens Sorte Mironovskaya 808; assay: Field trial of gametocidal activity (anther sterilisation), winter wheat; type: in vivo, Weizen; conditions: 2% aqueous emulsion, 20 kg/ha; for response vs control in vivo at 20000 g/ha: control = 100, read-out: Prozentsatz des Ansetzens bei freier Bestäubung
# in vivo [3] = conditions: rat
# [4] = test system: Diploider Roggen Sorte Chulpan; assay: Field trial of gametocidal activity, diploid rye Chulpan; type: in vivo; conditions: single compounds, 1% aqueous emulsion, 10 kg/ha; for pest or weed control at 10000 g/ha: read-out: Prozentsatz der Sterilität, Chulpan; for response vs control in vivo at 10000 g/ha: read-out: Prozentsatz des Ansetzens bei freier Bestäubung, Chulpan, control = 100
# Source text: (§1) Bei Weizen und Tritikale werden Einzelisolatoren verwendet.
# Pflanzen von diploidem Roggen Sorte Chulpan werden in der V. oder VI.
# Der Verbrauch an Sterilisationsmitteln beträgt 10 kg/ha.
# Sonnenblume Linie VK 119 = assay: Field trial of pollen sterilisation, sunflower line VK 119; conditions: 0,2% aqueous emulsion, 1,2 kg/ha
# [5] = test system: Sommerweizen Sorte Moskovskaya 35; assay: Field trial of gametocidal activity, spring wheat; type: in vivo, Weizen; conditions: 1% aqueous emulsion; for Anzahl von Körnern der Ähre bei freier Bestäubung / Anzahl von Körnern der Ähre im Isolator / pest or weed control at 10000 g/ha / percent sterility at 10000 g/ha: 10 kg/ha, V. period; for pest or weed control at 10000 g/ha / percent sterility at 10000 g/ha: read-out: Prozentsatz der Sterilität; for response vs control in vivo: control = 100, read-out: Prozentsatz des Ansetzens bei freier Bestäubung
# [6] = test system: Sonnenblume Sorte Peredovik; assay: Field trial of pollen sterilisation, sunflower Peredovik; type: in vivo; conditions: 0,2% aqueous emulsion, 1,2 kg/ke (so in the source)
# Source text: Pflanzen der Sonnenblume Sorte Peredovik werden in der V. oder VI.
# Der Verbrauch an Sterilisationsmittel beträgt 1,2 kg/ke.
# [7] = test system: Hirse Sorte Mironovskoe 94; assay: Field trial of gametocidal activity, millet Mironovskoe 94; type: in vivo; conditions: 1% aqueous emulsion, 10 kg/ha; for response vs control in vivo at 10000 g/ha: control = 100, read-out: Prozentsatz des Ansetzens bei freier Bestäubung
# in vivo [8] = conditions: mouse, LD50, weisse Mäuse
# [9] = test system: Tetraploider Roggen Sorte Gibrid 67; assay: Field trial of gametocidal activity, tetraploid rye Gibrid 67; type: in vivo; conditions: 1% aqueous emulsion, 10 kg/ha; for Prozentsatz des Ansetzens bei freier Bestäubung: control = 100
# Source text: as §1
# Pflanzen von tetraploidem Roggen Sorte Gibrid 67 werden in der V. oder VI.
# [10] = test system: Tetraploider Roggen Sorte Belta; assay: Field trial of gametocidal activity, tetraploid rye Belta; type: in vivo; conditions: 1% aqueous emulsion, 10 kg/ha
# [11] = test system: Diploider Roggen Sorte Gibrid 1864/74; assay: Field trial of gametocidal activity, diploid rye Gibrid 1864/74; conditions: 1% aqueous emulsion, 10 kg/ha
# [12] = test system: Hirse Sorte K-9693 Kormovoe 1; assay: Field trial of gametocidal activity, millet K-9693 Kormovoe 1; conditions: 1% aqueous emulsion, 10 kg/ha; for Anzahl von Körnern der Rispe bei freier Bestäubung / Anzahl von Körnern der Rispe im Isolator / Prozentsatz der Sterilität: V. or VI. period; for Prozentsatz des Ansetzens bei freier Bestäubung: control = 100
# [13] = Toxicity in animal test (result in words)
# [14] = test system: Tetraploider Roggen Sorte Jubileinaya; assay: Field trial of gametocidal activity, tetraploid rye Jubileinaya; conditions: 1% aqueous emulsion, 10 kg/ha
# [15] = in vivo
# [16] = V. or VI. period of organogenesis
# [17] = V. or VI. period, read-out: Prozentsatz der Sterilität
# [18] = V. or VI. period, listed as Beispiel 74
# [19] = Chulpan, V. or VI. period, listed as Beispiel 54
smiles,measurement,setting,value
"CC(C)OC(=S)S [Beispiel 5, Kaliumisopropylxanthogenat]",Anzahl von Körnern der Ähre bei freier Bestäubung,[1]; V. and VI. periods,"44,8"
same,Anzahl von Körnern der Ähre im Isolator,[1]; V. and VI. periods,"0,0"
same,Prozentsatz der Sterilität,[1]; V. and VI. periods,100%
same,Prozentsatz des Ansetzens bei freier Bestäubung,[1]; control = 100,"83,5%"
same,Anzahl von Körnern der Ähre bei freier Bestäubung,[2]; [16],"35,2"
same,Anzahl von Körnern der Ähre im Isolator,[2]; [16],"2,3"
same,pest or weed control at 20000 g/ha,"[2]; V. or VI. period of organogenesis, read-out: Prozentsatz der Sterilität",93.7%
same,response vs control in vivo at 20000 g/ha,[2],86.2%
same,LD50,in vivo [3],760 mg/kg
same,Anzahl von Körnern der Ähre bei freier Bestäubung,"[4]; Chulpan, V. or VI. period","51,8"
same,Anzahl von Körnern der Ähre im Isolator,"[4]; Chulpan, V. or VI. period","0,3"
same,pest or weed control at 10000 g/ha,[4]; V. or VI. period,99.4%
same,response vs control in vivo at 10000 g/ha,[4],91.4%
same,Ansetzen von Achänen bei freier Bestäubung in %,Sonnenblume Linie VK 119,"85,3%"
same,Ansetzen von Achänen im Isolator bei der Bestäubung mit dem Pollengemisch in %,Sonnenblume Linie VK 119,"0,0%"
same,Pollensterilität in %,Sonnenblume Linie VK 119,100%
same,Anzahl von Körnern der Ähre bei freier Bestäubung,[5],"24,9"
same,Anzahl von Körnern der Ähre im Isolator,[5],"2,3"
same,pest or weed control at 10000 g/ha,[5],91.5%
same,response vs control in vivo,[5],90.5%
same,Pollensterilität in %,[6],100%
same,Ansetzen von Achänen im Isolator bei der Bestäubung mit dem Pollengemisch in %,[6]; V. or VI. period,"0,0%"
same,Anzahl von Körnern der Rispe bei freier Bestäubung,[7]; V. or VI. period,"288,6"
same,Anzahl von Körnern der Rispe im Isolator,[7]; V. or VI. period,"0,0"
same,pest or weed control at 10000 g/ha,[7]; [17],100%
same,response vs control in vivo at 10000 g/ha,[7],76%
"OCC(O)CSc1ccccc1F (centres unmarked) [Beispiel 7, 3-(2'-Fluorphenylthio)-propandiol-I,2]",LD50,in vivo [8],400 mg/kg
same,Anzahl von Körnern der Ähre bei freier Bestäubung,[2]; [16],"36,7"
same,Anzahl von Körnern der Ähre im Isolator,[2]; [16],"0,0"
same,response vs control in vivo at 20000 g/ha,[2],90.6%
same,Anzahl von Körnern der Ähre bei freier Bestäubung,"[4]; Chulpan, V. or VI. period","53,4"
same,Anzahl von Körnern der Ähre im Isolator,"[4]; Chulpan, V. or VI. period","0,6"
same,percent sterility at 10000 g/ha,"[4]; Chulpan, V. or VI. period, read-out: Prozentsatz der Sterilität",98.8%
same,response vs control in vivo at 10000 g/ha,[4],94.2%
same,Anzahl von Körnern der Ähre bei freier Bestäubung,[5],"24,6"
same,Anzahl von Körnern der Ähre im Isolator,[5],"0,0"
same,percent sterility at 10000 g/ha,[5],100%
same,response vs control in vivo,[5],89.5%
same,Anzahl von Körnern der Ähre bei freier Bestäubung,[9]; V. or VI. period,"42,2"
same,Anzahl von Körnern der Ähre im Isolator,[9]; V. or VI. period,"0,0"
same,Prozentsatz des Ansetzens bei freier Bestäubung,[9],"94,4%"
same,Anzahl von Körnern der Rispe bei freier Bestäubung,[7]; V. or VI. period,"300,5"
same,Anzahl von Körnern der Rispe im Isolator,[7]; V. or VI. period,"0,0"
same,percent pollen sterility at 10000 g/ha,[7]; [17],100%
same,response vs control in vivo at 10000 g/ha,[7],79.2%
"O=C(O)c1ccccc1F [Beispiel 24, Diätha- nolaminat der o-Fluorbenzoesäure]",Anzahl von Körnern der Ähre bei freier Bestäubung,[10]; [18],"43,8"
same,Anzahl von Körnern der Ähre im Isolator,[10]; [18],"0,9"
same,pest or weed control at 10000 g/ha,[10]; [17],97.8%
same,response vs control in vivo at 10000 g/ha,"[10]; control = 100, read-out: Prozentsatz des Ansetzens bei freier Bestäubung",98.9%
same,Anzahl von Körnern der Ähre bei freier Bestäubung,[4]; [19],"54,0"
same,Anzahl von Körnern der Ähre im Isolator,[4]; [19],"0,0"
same,pest or weed control at 10000 g/ha,[4]; V. or VI. period,100%
same,response vs control in vivo at 10000 g/ha,[4],95.2%
same,Anzahl von Körnern der Ähre bei freier Bestäubung,[5],"27,1"
same,Anzahl von Körnern der Ähre im Isolator,[5],"2,2"
same,pest or weed control at 10000 g/ha,[5],91.9%
same,response vs control in vivo,[5],98.5%
same,LD50,"weisse Mäuse; weisse Mäuse, listed as Diäthanolaminsalz der o-Fluarbenzoesäure",500 mg/kg Tiergewicht
same,Anzahl von Körnern der Rispe bei freier Bestäubung,[7]; V. or VI. period,"348,6"
same,Anzahl von Körnern der Rispe im Isolator,[7]; V. or VI. period,"0,0"
same,pest or weed control at 10000 g/ha,[7]; [17],100%
same,response vs control in vivo at 10000 g/ha,[7],91.2%
"O=C(O)c1ccc(O)cc1 [Beispiel 28, Monoäthanolaminat der p-Hydroxybenzoesäure]",LD50,in vivo [8],3200 mg/kg
same,Anzahl von Körnern der Ähre bei freier Bestäubung,[11]; V. period,"46,7"
same,Anzahl von Körnern der Ähre im Isolator,[11]; V. period,"1,8"
same,Prozentsatz der Sterilität,[11]; V. period,"95,6%"
same,Prozentsatz des Ansetzens bei freier Bestäubung,[11]; control = 100,"97,7%"
same,Prozentsatz der Sterilität,[9]; V. or VI. period,"99,7%"
same,Prozentsatz des Ansetzens bei freier Bestäubung,[9],"93,4%"
"CCCCOC(=S)S [Beispiel 44, Kaliumbutylxanthogenat]",Anzahl von Körnern der Rispe bei freier Bestäubung,[12],"134,6"
same,Anzahl von Körnern der Rispe im Isolator,[12],"0,0"
same,Prozentsatz der Sterilität,[12],100%
same,Prozentsatz des Ansetzens bei freier Bestäubung,[12],"91,2%"
same,LD50,in vivo [3],760 mg/kg
same,Anzahl von Körnern der Ähre bei freier Bestäubung,"[4]; Chulpan, V. or VI. period","48,0"
same,Anzahl von Körnern der Ähre im Isolator,"[4]; Chulpan, V. or VI. period","2,6"
same,pest or weed control at 10000 g/ha,[4]; V. or VI. period,96.2%
same,response vs control in vivo at 10000 g/ha,[4],84.7%
same,Ansetzen von Achänen bei freier Bestäubung in %,Sonnenblume Linie VK 119,"81,5%"
same,Ansetzen von Achänen im Isolator bei der Bestäubung mit dem Pollengemisch in %,Sonnenblume Linie VK 119,"0,0%"
same,Pollensterilität in %,Sonnenblume Linie VK 119,100%
same,Pollensterilität in %,[6],100%
same,Ansetzen von Achänen bei freier Bestäubung in %,[6]; V. or VI. period,"85,3%"
same,Ansetzen von Achänen im Isolator bei der Bestäubung mit dem Pollengemisch in %,[6]; V. or VI. period,"0,0%"
"OCC(CO)(CO)CO [Beispiel 58, Pentaerythrit]",Toxizität im Tierversuch,[13],praktisch nichttoxische
same,Anzahl von Körnern der Ähre bei freier Bestäubung,[14]; V. or VI. period,"45,6"
same,Anzahl von Körnern der Ähre im Isolator,[14]; V. or VI. period,"0,4"
same,Prozentsatz des Ansetzens bei freier Bestäubung,[14]; control = 100,"94,4%"
OCC(O)CSc1ccc(F)cc1 (centres unmarked) [Beispiel I3],Anzahl von Körnern der Rispe bei freier Bestäubung,[12],"128,7"
same,Anzahl von Körnern der Rispe im Isolator,[12],"0,0"
same,Prozentsatz der Sterilität,[12],100%
same,Prozentsatz des Ansetzens bei freier Bestäubung,[12],"87,7%"
same,LD50,in vivo [8],~400 mg/kg
same,Anzahl von Körnern der Ähre bei freier Bestäubung,[2]; [16],"38,2"
same,Anzahl von Körnern der Ähre im Isolator,[2]; [16],"3,2"
same,response vs control in vivo at 20000 g/ha,[2],94.3%
same,Anzahl von Körnern der Ähre bei freier Bestäubung,[5],"26,4"
same,Anzahl von Körnern der Ähre im Isolator,[5],"2,0"
same,percent sterility at 10000 g/ha,[5],92.3%
same,response vs control in vivo,[5],96%
same,LD50,"weisse Mäuse; mouse, in vivo",400 mg/kg Tiergewicht
OCC(CO)(CO)CBr [Brommethyl-tri(oxymethyl)-methan],Toxizität im Tierversuch,[13],praktisch nichttoxische
"CCC(CO)(CO)CBr [I-Brom-2,2-di-methylol-butan]",Toxizität im Tierversuch,[15],praktisch nichttoxische
CCC(CO)(CO)CO [Trimethylolpropan],Toxizität im Tierversuch,[15],praktisch nichttoxische
